# Laboratory results: patent publication US6127342A, “Method for preventing or treating a lung disease caused by active oxygen and free radical injury” (Teijin Limited, priority 1991, dated 2000)
# Columns and labels:
# Type in all cases: in vivo
# [1] = test system: coronary ischemia-reperfusion model using dogs; test: Arrhythmia during coronary ischemia and reperfusion (electrocardiogram); conditions: dog; for Number of Ventricular Premature Beats, 1 Hour of Reperfusion / Total Duration of Ventricular Tachycardia, 1 Hour of Reperfusion / effect on total duration of ventricular tachycardia during reperfusion / occurrence of arrhythmia (ventricular premature beats) during reperfusion: 10 mg/kg i.v. just before reperfusion; for Number of Ventricular Premature Beats, 2 Hours of Ischemia / Total Duration of Ventricular Tachycardia, 2 Hours of Ischemia: during 2 h ischemia, before the drug was given
# Experimental: (§1) After anesthetizing 52 adult mongrel dogs of either sex weighing ca. 10 kg by intraperitoneal administration of 50 mg/kg of sodium pentobarbital, breathing tubes were immediately intubated endotracheally and artificial ventilation was continued using a Harvard ventilator. Electrocardiogram electrodes were attached, and monitoring and recording were continued throughout the experiment. Following insertion of cannulas in the right femoral vein and right femoral artery, the cannulas were used for continuous intravenous drip of physiological saline to replenish water or administration of the test preparation, and monitoring of arterial blood pressure, respectively. After performing left thoracotomy in the fourth or fifth intercostal space, the pericardium was torn to expose the heart. Ischemia was induced by ligating the left anterior descending coronary artery immediately distal to the first diagonal branch, while reperfusion was performed by subsequently removing that ligation.
# (§2) The animals were divided into four groups. Group 1 (n=9) was subjected to ischemia for 2 hours, group 2 (n=17) was subjected to ischemia for 2 hours followed by reperfusion for 1 hour, group 3 (n=10) was subjected to ischemia for 2 hours followed by reperfusion for 1 hour plus intravenous injection of 10 mg/kg of γ-GCE just before reperfusion, and group 4 (n=16) was subjected to 2 hours of ischemia followed by 1 hour of reperfusion plus intravenous injection of 10 mg/kg of reduced glutathione (GSH, control drug) just before reperfusion.
# Evaluation of arrhythmia was performed by analyzing the electrocardiogram to determine the presence of arrhythmia, or in other words, the number of ventricular premature beats, as well as the total duration of ventricular tachycardia, which was defined as more than three successive ventricular premature beats.
# [2] = test system: coronary ischemia-reperfusion model using dogs; test: Mortality during coronary ischemia-reperfusion in dogs; conditions: dog; for Mortality rate (number of dogs that died / number of dogs in experiment), 1 hour of reperfusion: 1 hour of reperfusion after 10 mg/kg i.v. just before reperfusion; for Mortality rate (number of dogs that died / number of dogs in experiment), 2 hours of ischemia: before the drug was given (10 mg/kg i.v. just before reperfusion)
# Experimental: as §1, §2
# [3] = test system: liver tissue mitochondria; test: Liver tissue mitochondrial function in liver ischemia-reperfusion; conditions: rat, 50 mg/kg i.v. before ischemia, FIGS. 2A and 2B; for effect on recovery of liver mitochondrial function during reperfusion: 1 h reperfusion; for effect on reduction of liver mitochondrial St. III O2 caused by ischemia: 2 h ischemia
# Experimental: (§3) Male Wister rats weighing 250-300 g were fasted with free access to water 24 hours before the experiment. Seventy-two rats were divided into three groups of 24 animals each, i.e., the control group, the GSH administration group and the γ-GCE-administration group. Each rat was anesthetized by intraperitoneal administration of 40 mg/0.8 ml/kg of sodium pentobarbital, and the femoral vein was cannulated. In the GSH group and the γ-GCE group, 50 mg/kg of GSH or γ-GCE respectively were administered intravenously. Physiological saline was then infused for volume replacement in each group, as a continuous intravenous infusion at a rate of 0.8 ml/hr with an injection pump throughout the experiment. Thirty minutes after starting injection of physiological saline, the abdomon was opened by a midline incision and the liver hilus was exposed. According to the method described by Hasselgren, et al. in J. Surg. Res., Vol. 34, pp. 409-414, 1984, all vessels to the left and median lobes of the liver, more specifically, hepatic artery, portal vein and the bile duct, were clamped to produce an ischemic state for 2 hours. Since blood vessels to the remaining parts of the liver were not occluded by this method, poral stasis could be avoided which was of special relevance for circulation stability in rats. Thereafter, occlusion of all vessels was released by removing the clamp to allow reperfusion for 1 hour. The abdominal walls were closed during ischemia and reperfusion. […]
# (§4) Evaluation of ischemia-reperfusion injury was performed by measuring liver tissue (1) mitochondrial function, (2) glutathione concentration, (3) adenine nucleotides concentration, and (4) lipid peroxide concentration, as well as liver tissue derived (5) adenine nucleotides concentration in the hepatic vein immediately after starting reperfusion, and (6) liver cell enzyme activities in the blood after 1 hour of reperfusion. More specifically, the mitochondrial function in (1) was measured according to the method described by Chance, et al. in Adv. […] In addition, the quantitative determination of glutathione in (2) was performed using the same method as Experiment 1 on supernatant obtained by adding 10 vol/g of tissue weight of 2.5% (w/v) sulfosalicylic acid dihydrate aqueous solution to the liver tissue followed by homogenization and centrifugation. In addition, the quantitative determination of adenine nucleotides in (3) was performed by neutralizing the perchloric acid extract of the liver tissue with potassium hydroxide followed by removal of the precipitate and applying to an ion exchange HPLC column according to the method described by Sugino, et al. in J. Chromatogr., Vol. 361, pp. 427-431, 1986. […]
# [4] = test system: liver ischemia-reperfusion model using rats; test: Glutathione concentration in liver tissue during liver ischemia-reperfusion; conditions: rat, 50 mg/kg i.v.
# Experimental: Male Wister rats weighing 250-300 g were fasted with free access to water 24 hours before the experiment. Seventy-two rats were divided into three groups of 24 animals each, i.e., the control group, the GSH administration group and the γ-GCE-administration group. Each rat was anesthetized by intraperitoneal administration of 40 mg/0.8 ml/kg of sodium pentobarbital, and the femoral vein was cannulated. In the GSH group and the γ-GCE group, 50 mg/kg of GSH or γ-GCE respectively were administered intravenously. Physiological saline was then infused for volume replacement in each group, as a continuous intravenous infusion at a rate of 0.8 ml/hr with an injection pump throughout the experiment. Thirty minutes after starting injection of physiological saline, the abdomon was opened by a midline incision and the liver hilus was exposed. According to the method described by Hasselgren, et al. in J. Surg. Res., Vol. 34, pp. 409-414, 1984, all vessels to the left and median lobes of the liver, more specifically, hepatic artery, portal vein and the bile duct, were clamped to produce an ischemic state for 2 hours. Since blood vessels to the remaining parts of the liver were not occluded by this method, poral stasis could be avoided which was of special relevance for circulation stability in rats. Thereafter, occlusion of all vessels was released by removing the clamp to allow reperfusion for 1 hour. The abdominal walls were closed during ischemia and reperfusion.
# Using 18 rats in each group, the livers of 6 animals from each group were removed before ischemia, after 2 hours of ischemia, and after 1 hour of reperfusion, respectively. A portion of the liver from each animal was rapidly frozen in liquid nitrogen and used for measurement of glutathione,adenine nucleotides and lipid peroxide. From the remaining portion of the liver, mitochondria was immediately extracted according to the method described by Hogeboom and Schneider in the J. Biol. Chem., Vol. 172, p. 619, 1948. In other experiments, immediately after starting reperfusion, blood from the hepatic vein was collected using 6 rats from each group. These blood samples were then used to measure leaked adenine nucleotides. In addition, after 1 hour of said reperfusion, blood samples were also drawn, which were then used to measure the activity of the leaked liver cell enzymes.
# Evaluation of ischemia-reperfusion injury was performed by measuring liver tissue (1) mitochondrial function, (2) glutathione concentration, (3) adenine nucleotides concentration, and (4) lipid peroxide concentration, as well as liver tissue derived (5) adenine nucleotides concentration in the hepatic vein immediately after starting reperfusion, and (6) liver cell enzyme activities in the blood after 1 hour of reperfusion. More specifically, the mitochondrial function in (1) was measured according to the method described by Chance, et al. in Adv. Enzymol., Vol. 17, p. 65, 1956. In addition, the quantitative determination of glutathione in (2) was performed using the same method as Experiment 1 on supernatant obtained by adding 10 vol/g of tissue weight of 2.5% (w/v) sulfosalicylic acid dihydrate aqueous solution to the liver tissue followed by homogenization and centrifugation. In addition, the quantitative determination of adenine nucleotides in (3) was performed by neutralizing the perchloric acid extract of the liver tissue with potassium hydroxide followed by removal of the precipitate and applying to an ion exchange HPLC column according to the method described by Sugino, et al. in J. Chromatogr., Vol. 361, pp. 427-431, 1986. In addition, the measurement of lipid peroxide in (4) was performed according to the thiobarbiturate method described by Ohkawa, et al. in Anal. Biochem., Vol. 95, p. 351, 1979. […]
# [5] = test system: liver ischemia-reperfusion model using rats; test: Liver lipid peroxide concentration (thiobarbiturate method); conditions: rat; 50 mg/kg i.v.; after 1 hour reperfusion
# Experimental: Male Wister rats weighing 250-300 g were fasted with free access to water 24 hours before the experiment. Seventy-two rats were divided into three groups of 24 animals each, i.e., the control group, the GSH administration group and the γ-GCE-administration group. Each rat was anesthetized by intraperitoneal administration of 40 mg/0.8 ml/kg of sodium pentobarbital, and the femoral vein was cannulated. In the GSH group and the γ-GCE group, 50 mg/kg of GSH or γ-GCE respectively were administered intravenously. Physiological saline was then infused for volume replacement in each group, as a continuous intravenous infusion at a rate of 0.8 ml/hr with an injection pump throughout the experiment. Thirty minutes after starting injection of physiological saline, the abdomon was opened by a midline incision and the liver hilus was exposed. […]
# Evaluation of ischemia-reperfusion injury was performed by measuring liver tissue (1) mitochondrial function, (2) glutathione concentration, (3) adenine nucleotides concentration, and (4) lipid peroxide concentration, as well as liver tissue derived (5) adenine nucleotides concentration in the hepatic vein immediately after starting reperfusion, and (6) liver cell enzyme activities in the blood after 1 hour of reperfusion. More specifically, the mitochondrial function in (1) was measured according to the method described by Chance, et al. in Adv. […]
# [6] = test system: liver ischemia-reperfusion model using rats; test: Adenine nucleotides in hepatic vein immediately after starting reperfusion; conditions: rat; 50 mg/kg i.v.
# Experimental: as §3, §4
# [7] = 10 mg/kg i.v. just before reperfusion
Structure (SMILES),"Number of Ventricular Premature Beats, 1 Hour of Reperfusion [1]","Total Duration of Ventricular Tachycardia, 1 Hour of Reperfusion [1] [s]",effect on total duration of ventricular tachycardia during reperfusion [1],occurrence of arrhythmia (ventricular premature beats) during reperfusion [1],"Number of Ventricular Premature Beats, 2 Hours of Ischemia [1]","Total Duration of Ventricular Tachycardia, 2 Hours of Ischemia [1] [s]","Mortality rate (number of dogs that died / number of dogs in experiment), 1 hour of reperfusion [2]","Mortality rate (number of dogs that died / number of dogs in experiment), 2 hours of ischemia [2]",effect on recovery of liver mitochondrial function during reperfusion [3],effect on reduction of liver mitochondrial St. III O2 caused by ischemia [3],"Liver tissue glutathione, GSH + GSSG, after 1 hour reperfusion [4]","Liver tissue glutathione, GSH, after 1 hour reperfusion [4]","Liver tissue glutathione, GSSG, after 1 hour reperfusion [4]","Liver tissue glutathione, GSH + GSSG, after 2 hours ischemia [4]","Liver tissue glutathione, GSH, after 2 hours ischemia [4]","Liver tissue glutathione, GSSG, after 2 hours ischemia [4]","Liver tissue glutathione, GSH + GSSG, before ischemia [4]","Liver tissue glutathione, GSH, before ischemia [4]","Liver tissue glutathione, GSSG, before ischemia [4]",Concentration of liver lipid peroxide following reperfusion [5] [nmol/mg protein],further results
"CCOC(=O)[C@H](CS)NC(=O)CC[C@H](N)C(=O)O [γ-GCE, γ-L-glutamyl-L-cysteine ethyl ester]",32 ± 30,3 ± 5,remarkably suppressed its increase during reperfusion,strikingly suppressed,40 ± 51,1 ± 2,0/8,2/10,significantly promoted recovery of mitochondrial function during reperfusion,significantly suppressed reduction of St. III O2 caused by ischemia,5.50 ± 0.26 μmol/g of liver wet weight,4.97 ± 0.25 μmol/g of liver wet weight,0.54 ± 0.09 μmol/g of liver wet weight,5.87 ± 0.43 μmol/g of liver wet weight,5.48 ± 0.42 μmol/g of liver wet weight,0.39 ± 0.01 μmol/g of liver wet weight,6.04 ± 0.35 μmol/g of liver wet weight,5.65 ± 0.30 μmol/g of liver wet weight,0.39 ± 0.07 μmol/g of liver wet weight,6.56±0.6,"mortality rate during reperfusion [2, 7]: 0; decrease of liver glutathione concentration throughout the experiment [4]: no significant decrease was observed throughout the experiment; liver glutathione concentration compared with control group or GSH administration group ([4]; throughout the experiment): significantly higher; Adenine nucleotides concentration in hepatic vein immediately after starting reperfusion [6]: 1.96 ± 0.80 μmol/L serum; reduction of leakage of adenine nucleotides into the hepatic vein immediately after starting reperfusion [6]: over 50%"
"N[C@@H](CCC(=O)N[C@@H](CS)C(=O)NCC(=O)O)C(=O)O [GSH, reduced glutathione, reference compound]",1731 ± 1574,983 ± 959,did not show such effect whatsoever,not suppressed at all,42 ± 43,1 ± 2,7/15,1/16,did not show any protective effects whatsoever,did not show any protective effects whatsoever,3.77 ± 0.64 μmol/g of liver wet weight,3.40 ± 0.60 μmol/g of liver wet weight,0.37 ± 0.05 μmol/g of liver wet weight,4.40 ± 0.68 μmol/g of liver wet weight,4.35 ± 0.65 μmol/g of liver wet weight,0.35 ± 0.04 μmol/g of liver wet weight,5.29 ± 0.38 μmol/g of liver wet weight,4.91 ± 0.35 μmol/g of liver wet weight,0.38 ± 0.06 μmol/g of liver wet weight,9.1±2.0,"animals died due to ventricular fibrillation during reperfusion [2, 7]: ca. 50%; liver glutathione concentration after reperfusion relative to the level prior to ischemia [4]: ~70%; Adenine nucleotides concentration in hepatic vein immediately after starting reperfusion [6]: 3.59 ± 1.28 μmol/L serum; effect on leakage of adenine nucleotides into the hepatic vein [6]: did not significantly mitigate the leakage"
